Source: patent US20250073255A1, “USE OF FA-TYPE LIPID COMPOUNDS IN PREPARATION OF NUCLEIC ACID DELIVERY REAGENT AND RELATED PRODUCT” (BEIJING BAISHIKANG PHARMACEUTICAL TECHNOLOGY (BSJPHARMA) …, priority 2021, published 2025)

Test system: C57BL/6 male mice
Experiment: In vivo delivery study of lipid nucleic acid mixture (oral gavage, RT-qPCR of PGY-sRNA-26 in tissues)
Set-up: species or system mouse
Conditions: for overall delivery efficacy: delivering nucleic acids into each tissue and blood tested: 100 μg lipid:10 nmol PGY-sRNA-26, all tissues and blood tested; for oral delivery of single-stranded sRNA nucleic acids into mouse heart tissue: vs free uptake group; for oral delivery of single-stranded sRNA nucleic acids into mouse intestinal tissue: intestine
Procedure, shortened: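 Lipid (100 μg) and 10 nmol 3'-methylated single-stranded PGY-sRNA-26 were heated at 90 °C for 15 min, then given by oral gavage to mice fasted 12 h. Controls were saline and free sRNA. Blood and tissues were taken at 12 h, and levels were measured by stem-loop RT-qPCR relative to U6.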

[1] = 100 μg lipid:10 nmol PGY-sRNA-26, sampled after 12 hours

| SMILES | overall delivery efficacy: delivering nucleic acids into each tissue and blood tested | oral delivery of single-stranded sRNA nucleic acids into mouse blood [1] | oral delivery of single-stranded sRNA nucleic acids into mouse brain tissue [1] | oral delivery of single-stranded sRNA nucleic acids into mouse femur [1] | oral delivery of single-stranded sRNA nucleic acids into mouse heart tissue [1] | oral delivery of single-stranded sRNA nucleic acids into mouse intestinal tissue [1] | oral delivery of single-stranded sRNA nucleic acids into mouse kidney tissue [1] | oral delivery of single-stranded sRNA nucleic acids into mouse liver tissue [1] | oral delivery of single-stranded sRNA nucleic acids into mouse lung tissue [1] | oral delivery of single-stranded sRNA nucleic acids into mouse pancreatic tissue (100 μg lipid:10 nmol PGY-sRNA-26, sampled after 12 hours, pancreas) | oral delivery of single-stranded sRNA nucleic acids into mouse spleen tissue [1] | oral delivery of single-stranded sRNA nucleic acids into mouse stomach tissue [1] |
| --- | --- | --- | --- | --- | --- | --- | --- | --- | --- | --- | --- | --- |
| CCCCCCCCCC(=O)OC/C=C(\C)CC/C=C(\C)CCC=C(C)C [Lipid 803, [(2E,6E)-3,7,11-trimethyldodeca-2,6,10-trienyl]decanoate] | best delivery efficacy | can effectively orally deliver | can effectively orally deliver | can effectively orally deliver | can effectively orally deliver | can effectively orally deliver | can effectively orally deliver | can effectively orally deliver | can effectively orally deliver | can effectively orally deliver | can effectively orally deliver | can effectively orally deliver |
| CCCCCCCC(C)C [Lipid 528, 2-methylnonane] | best delivery efficacy | can effectively orally deliver | can effectively orally deliver | can effectively orally deliver | can effectively orally deliver | can effectively orally deliver | can effectively orally deliver | can effectively orally deliver | can effectively orally deliver |  | can effectively orally deliver | can effectively orally deliver |
| CCCCCCCCCOC(C)=O [Lipid 617, nonyl acetate] |  | can effectively orally deliver | can effectively orally deliver | can effectively orally deliver |  | can effectively orally deliver | can effectively orally deliver | can effectively orally deliver | can effectively orally deliver |  | can effectively orally deliver | can effectively orally deliver |
| CC/C=C\CC1C(=O)CCC1CC(=O)O (stereo not shown) [Lipid 527] | best delivery efficacy | can effectively orally deliver | can effectively orally deliver | can effectively orally deliver | can effectively orally deliver | can effectively orally deliver | can effectively orally deliver | can effectively orally deliver | can effectively orally deliver |  | can effectively orally deliver | can effectively orally deliver |
